Results as given in patent publication US8759535B2, “Substituted fused imidazole derivatives, pharmaceutical compositions, and methods of use thereof” (High Point Pharmaceuticals, LLC, priority 2010, dated 2014).
Structures can show the parent of a compound that is named as a salt.

System: HMOX1
Test: HMOX1 Protein Assay (immunostaining of HO-1 in NHLF cells, GE InCell 1000)
Type: cell-based
Settings: Homo sapiens, fold change above DMSO treated cells, 3 μM compound (asterisk), 16 h
Procedure, shortened: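 Fold induction of HO-1 over vehicle, normally at 5 μM compound (asterisk marks 3 μM), in 0.8% DMSO medium. Normal human lung fibroblasts were treated 16 h, then paraformaldehyde-fixed, anti-HO-1/Alexa 488 stained with Hoechst, and read by high-content imaging.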

Compound	fold induction at 3 µM
CN1CCN(CCCNC(=O)c2ccc3c(c2)nc(Nc2nc4ccc(OC(F)(F)F)cc4s2)n3C)CC1 [Example 355, 1-Methyl-2-(6-trifluoromethoxy-benzothiazol-2-ylamino)-1H-benzoimidazole-5-carboxylic acid [3-(4-methyl-piperazin-1-yl)-propyl]-amide]	26
Cn1c(Nc2nc3ccc(Cl)cc3s2)nc2cc(C(=O)NC[C@H]3CC[C@H](O)CC3)ccc21 [Example 233, 2-(6-Chloro-benzothiazol-2-ylamino)-1-methyl-1H-benzoimidazole-5-carboxylic acid (trans-4-hydroxy-cyclohexylmethyl)-amide]	28
Cn1c(Nc2nc3ccc(Cl)cc3s2)nc2cc(C(=O)NCCN3CCNCC3)ccc21 [Example 339, 2-(6-Chloro-benzothiazol-2-ylamino)-1-methyl-1H-benzoimidazole-5-carboxylic acid (2-piperazin-1-yl-ethyl)-amide hydrochloride]	10.6
Cn1c(Nc2nc3ccc(Cl)cc3s2)nc2cc(C(=O)NCC(=O)N3CCCC3)ccc21 [Example 397, 2-(6-Chloro-benzothiazol-2-ylamino)-1-methyl-1H-benzoimidazole-5-carboxylic acid (2-oxo-2-pyrrolidin-1-yl-ethyl)-amide]	25
CN1CCN(CCCNC(=O)c2ccc3c(c2)nc(Nc2nc4ccc(Cl)cc4s2)n3C)CC1 [Example 356, 2-(6-Chloro-benzothiazol-2-ylamino)-1-methyl-1H-benzoimidazole-5-carboxylic acid [3-(4-methyl-piperazin-1-yl)-propyl]-amide]	19

Same assay, conditions: Homo sapiens, fold change above DMSO treated cells, 5 μM compound, 16 h

Compound	fold induction at 5 µM
COc1cc2c(cc1C(=O)O)nc(Nc1nc3ccc(OC(F)(F)F)cc3s1)n2C [Example 62, 6-Methoxy-1-methyl-2-(6-trifluoromethoxy-benzothiazol-2-ylamino)-1H-benzoimidazole-5-carboxylic acid]	20.3
CCNC(=O)c1ccc2c(c1)nc(Nc1nc3ccc(OC(F)(F)F)cc3s1)n2C(C)C [Example 161, 1-Isopropyl-2-(6-trifluoromethoxy-benzothiazol-2-ylamino)-1H-benzoimidazole-5-carboxylic acid ethylamide]	19.1
CCn1c(Nc2nc3ccc(C(F)(F)F)cc3s2)nc2cc(C(=O)NC)ccc21 [Example 180, 1-Ethyl-2-(6-trifluoromethyl-benzothiazol-2-ylamino)-1H-benzoimidazole-5-carboxylic acid methylamide]	12.4
CCn1c(Nc2nc3ccc(OC(F)(F)F)cc3s2)nc2cc(C(=O)NCC(=O)N(C)C)ccc21 [Example 186, 1-Ethyl-2-(6-trifluoromethoxy-benzothiazol-2-ylamino)-1H-benzoimidazole-5-carboxylic acid dimethylcarbamoylmethyl-amide]	20.2
CN1CCC[C@@H](NC(=O)CNC(=O)c2ccc3c(c2)nc(Nc2nc4ccc(Cl)cc4s2)n3C)C1 [Example 388, 2-(6-Chloro-benzothiazol-2-ylamino)-1-methyl-1H-benzoimidazole-5-carboxylic acid [((R)-1-methyl-piperidin-3-ylcarbamoyl)-methyl]-amide]	22
COCCn1c(Nc2nc3ccc(Cl)cc3s2)nc2cc(C(=O)NCC3CCN(C(=O)CN(C)C)CC3)ccc21 [Example 315, 2-(6-Chloro-benzothiazol-2-ylamino)-1-(2-methoxy-ethyl)-1H-benzoimidazole-5-carboxylic acid [1-(2-dimethylamino-acetyl)-piperidin-4-ylmethyl]-amide]	75.7
CN(C)CC(=O)N1CCC(CNC(=O)c2ccc3c(c2)nc(Nc2nc4ccc(Cl)cc4s2)n3C)CC1 [Example 314, 2-(6-Chloro-benzothiazol-2-ylamino)-1-methyl-1H-benzoimidazole-5-carboxylic acid [1-(2-dimethylamino-acetyl)-piperidin-4-ylmethyl]-amide]	79.7
CN(C)CC(=O)N1CCC[C@@H](NC(=O)c2ccc3c(c2)nc(Nc2nc4ccc(Cl)cc4s2)n3C)C1 [Example 311, 2-(6-Chloro-benzothiazol-2-ylamino)-1-methyl-1H-benzoimidazole-5-carboxylic acid [(R)-1-(2-dimethylamino-acetyl)-piperidin-3-yl]-amide]	77.3
Cn1c(Nc2nc3ccc(OC(F)(F)F)cc3s2)nc2cc(C(=O)NCCN3CCOCC3)cnc21 [Example 77, 3-Methyl-2-(6-trifluoromethoxy-benzothiazol-2-ylamino)-3H-imidazo[4,5-b]pyridine-6-carboxylic acid (2-morpholin-4-yl-ethyl)-amide]	31.4
Cn1c(Nc2nc3ccc(C(F)(F)F)cc3s2)nc2cc(C(=O)O)ccc21 [Example 24, 1-Methyl-2-(6-trifluoromethyl-benzothiazol-2-ylamino)-1H-benzoimidazole-5-carboxylic acid]	20.7
Cn1c(Nc2nc3ccc(Cl)cc3s2)nc2cc(C(=O)N[C@H]3CCNC3)ccc21 [Example 291, 2-(6-Chloro-benzothiazol-2-ylamino)-1-methyl-1H-benzoimidazole-5-carboxylic acid (S)-pyrrolidin-3-ylamide hydrochloride]	17
Cn1c(Nc2nc3ccc(Cl)cc3s2)nc2cc(C(=O)NCC(=O)N[C@@H]3CCCNC3)ccc21 [Example 387, 2-(6-Chloro-benzothiazol-2-ylamino)-1-methyl-1H-benzoimidazole-5-carboxylic acid ((R)-piperidin-3-ylcarbamoylmethyl)-amide hydrochloride]	19.9
Cn1c(Nc2nc3ccc(OC(F)(F)F)cc3s2)nc2cc(C(=O)NCC(=O)N3CC[C@H](N)C3)ccc21 [Example 412, 1-Methyl-2-(6-trifluoromethoxy-benzothiazol-2-ylamino)-1H-benzoimidazole-5-carboxylic acid [2-((S)-3-amino-pyrrolidin-1-yl)-2-oxo-ethyl]-amide hydrochloride]	47.6
COC(=O)CNC(=O)c1ccc2c(c1)nc(Nc1nc3ccc(OC(F)(F)F)cc3s1)n2C [Example 79, {[1-Methyl-2-(6-trifluoromethoxy-benzothiazol-2-ylamino)-1H-benzoimidazole-5-carbonyl]-amino}-acetic acid methyl ester]	17.6
Cn1c(Nc2nc3ccc(OC(F)(F)F)cc3s2)nc2cc(C(=O)NCc3ccc(O)cc3)ccc21 [Example 230, 1-Methyl-2-(6-trifluoromethoxy-benzothiazol-2-ylamino)-1H-benzoimidazole-5-carboxylic acid 4-hydroxy-benzylamide]	29.8
CSCCNC(=O)c1ccc2c(c1)nc(Nc1nc3ccc(OC(F)(F)F)cc3s1)n2C [Example 101, 1-Methyl-2-(6-trifluoromethoxy-benzothiazol-2-ylamino)-1H-benzoimidazole-5-carboxylic acid (2-methylsulfanyl-ethyl)-amide]	11.2
COCCn1c(Nc2nc3ccc(Cl)cc3s2)nc2cc(C(=O)NCC(=O)N3CC[C@H](O)C3)ccc21 [Example 405, 2-(6-Chloro-benzothiazol-2-ylamino)-1-(2-methoxy-ethyl)-1H-benzoimidazole-5-carboxylic acid [2-((S)-3-hydroxy-pyrrolidin-1-yl)-2-oxo-ethyl]-amide]	21.4
COCCn1c(Nc2nc3ccc(OC(F)(F)F)cc3s2)nc2cc(C(=O)O)ccc21 [Example 166, 1-(2-Methoxy-ethyl)-2-(6-trifluoromethoxy-benzothiazol-2-ylamino)-1H-benzoimidazole-5-carboxylic acid]	22.4
Cn1c(Nc2nc3ccc(OC(F)(F)F)cc3s2)nc2cc(C(=O)NCCOCC3CCCO3)ccc21 (stereo not drawn) [Example 53, 1-Methyl-2-(6-trifluoromethoxy-benzothiazol-2-ylamino)-1H-benzoimidazole-5-carboxylic acid [2-(tetrahydro-furan-2-ylmethoxy)-ethyl]-amide]	20.1
CN(C)CC(=O)NCCNC(=O)c1ccc2c(c1)nc(Nc1nc3ccc(Cl)cc3s1)n2C [Example 324, 2-(6-Chloro-benzothiazol-2-ylamino)-1-methyl-1H-benzoimidazole-5-carboxylic acid [2-(2-dimethylamino-acetylamino)-ethyl]-amide]	27.9
C[C@@H](O)CNC(=O)CNC(=O)c1ccc2c(c1)nc(Nc1nc3ccc(Cl)cc3s1)n2C [Example 382, 2-(6-Chloro-benzothiazol-2-ylamino)-1-methyl-1H-benzoimidazole-5-carboxylic acid [((R)-2-hydroxy-propylcarbamoyl)-methyl]-amide]	20.6
Cn1c(Nc2nc3ccc(OC(F)(F)F)cc3s2)nc2cc(C(=O)NCC(=O)OC(C)(C)C)ccc21 [Example 91, {[1-Methyl-2-(6-trifluoromethoxy-benzothiazol-2-ylamino)-1H-benzoimidazole-5-carbonyl]-amino}-acetic acid tert-butyl ester]	10.1
COC(=O)c1cc2nc(Nc3nc4ccc(OC(F)(F)F)cc4s3)n(C)c2cc1F [Example 40, 6-Fluoro-1-methyl-2-(6-trifluoromethoxy-benzothiazol-2-ylamino)-1H-benzoimidazole-5-carboxylic acid methyl ester]	11.8
CCn1c(Nc2nc3ccc(OC(F)(F)F)cc3s2)nc2cc(S(=O)(=O)C(F)(F)F)ccc21 [Example 199, (1-Ethyl-5-trifluoromethanesulfonyl-1H-benzoimidazol-2-yl)-(6-trifluoromethoxy-benzothiazol-2-yl)-amine]	1.5
Cn1c(Nc2nc3ccc(OC(F)(F)F)cc3s2)nc2cc(C(=O)NCCC3CCOCC3)ccc21 [Example 264, 1-Methyl-2-(6-trifluoromethoxy-benzothiazol-2-ylamino)-1H-benzoimidazole-5-carboxylic acid [2-(tetrahydro-pyran-4-yl)-ethyl]-amide]	22.9
